Laboratory results: article PMC10498667 (Chemical Science, 2023)

Key:
[1] = target: T1, 15N-labeled Aβ40 (Homo sapiens, UniProt P05067); experiment: 2D SOFAST-HMQC NMR with 15N-labeled Aβ40; assay type: binding; settings: 15N-Aβ40 33 μM; 6 100 μM; 10 °C
T1 construct: AEDVG SNKGA IIGLM VGGVV; purchased rPeptide (Georgia, GA, USA)
Experimental: 2D 1H−15N SOFAST-HMQC NMR Experiments. […] To remove possible preformed aggregates, the lyophilized peptide was then redissolved in diluted NaOH (pH 10) and passed through a filter (0.22 µm). On the other hand, the stock solution of 15N-labeled Ab42 based on the previous report.27 Briefly, uniformly 15N-labeled Ab42 was solubilized in diluted NaOH (pH 10) at a concentration of ~200 µM. The undissolved precipitates of Ab42 were removed by centrifugation at 40,000 rpm for 1 h. The solution of 15N-labeled Ab (33 µM) was prepared with and without 6 (100 µM; 1% v/v DMSO) in 20 mM HEPES, pH 7.4 (10% v/v D2O) for NMR experiments. All spectra were acquired with 180 scans at 10 °C. Dimensions of the spectra were 1,024 (1H) ´ 128 (15N) points. Experimental data were processed with NMRpipe29 and Sparky 3.115.30 The 1H and 15N assignments of 15N-labeled Ab were determined based on the previous results.21,31 The chemical shift perturbation was calculated following the equation (eq 4).32 Note that DdH and DdN represent the alterations in the chemical shifts of 1H and 15N of 15N-labeled Ab, respectively.

[2] = target: T2, 15N-labeled Aβ42 (Homo sapiens, UniProt P05067); experiment: 2D SOFAST-HMQC NMR with 15N-labeled Aβ42; assay type: binding; settings: 15N-Aβ42 33 μM; 6 100 μM; 10 °C
T2 construct: the human Ab42 peptide was artificially constructed using codons; extra Met residue (start codon) before Asp1 (N); made in house; host or cells: E. coli BL21 (DE3) pLysS, pAED4 vector
Experimental: Cell viability was determined by the MTT assay [MTT = 3-(4,5-dimethylthiazol-2-yl)-2,5-diphenyltetrazolium bromide]. Cells were seeded in a 96-well plate (15,000 cells/100 µL) and treated with the samples {[flavonoid] = 5, 10, 25, 50, and 100 µM (1% v/v DMSO)}. After 24 h incubation, 5Y cells were washed with phosphate buffered saline (PBS; GIBCO). MTT [5 mg/mL in PBS (pH 7.4, GIBCO); 25 µL] was added to each well and the plate was incubated for 4 h at 37 °C. The formazan produced by cells was solubilized using an acidic solution of DMF (pH 4.5, 50% v/v, aq) and sodium dodecyl sulfate (SDS; 20% w/v) overnight at room temperature in the dark. Absorbance was measured at 600 nm by a microplate reader (Molecular Devices). Cell viability, relative to that of the cells containing an equivalent amount of DMSO, was calculated.
The measurements were conducted in triplicate. […]
loading into the instrument. […]
The initial delay and the reference power were 60 s and 10 µcal/s, […]
The ITC thermogram and binding isotherm were shown after the subtraction of the dilution heat.
The binding isotherm after baseline correction was fitted to the one-set-of-sites binding model using the MicroCal Origin software (version 7.0).
Expression and Purification of 15N-labeled Recombinant Ab42. […]

[3] = target: T3, Aβ42 (Homo sapiens, UniProt P05067); experiment: ESI-MS and ESI-MS2 of Aβ42 treated with 6; settings: 6 200 μM, 3 h
T3 construct: purchased Peptide Institute, Inc. (Osaka, Japan)
Description: To identify the modifications of Aβ in both the absence and presence of Cu(II) upon treatment of 6, we carried out the studies employing electrospray ionization mass spectrometry (ESI-MS). In the sample containing metal-free Aβ42 and 6, the addition of +16 Da into the +3-charged Aβ42 monomer, assigned to be the oxidized monomeric Aβ42, was detected (Fig. 7a), while such oxidation was not observed under anaerobic conditions (Fig. S20 ^†). To determine the oxidized amino acid residues in Aβ42, the b fragments generated by collision-induced dissociation were analyzed by tandem MS (ESI-MS^2). As illustrated in Fig. 7b and S21a, ^† the Met35 residue was measured to be the oxidation site in the singly oxidized Aβ42. […] Similar to metal-free Aβ42, the oxidation of Aβ40 at the Met35 residue was monitored by incubation with 6 (Fig. S22a, b and S23a ^†). […]
2D 1H−15N SOFAST-HMQC NMR Experiments. […] Experimental data were processed with NMRpipe29 and Sparky 3.115.30 The 1H and 15N assignments of 15N-labeled Ab were determined based on the previous results.21,31 The chemical shift perturbation was calculated following the equation (eq 4).32 Note that DdH and DdN represent the alterations in the chemical shifts of 1H and 15N of 15N-labeled Ab, respectively. […]

T3 sequence (P05067 672-713 limits assumed): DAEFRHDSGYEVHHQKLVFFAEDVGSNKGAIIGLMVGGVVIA
T2 sequence (P05067 671-713 limits assumed): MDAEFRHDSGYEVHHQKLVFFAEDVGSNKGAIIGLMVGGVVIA
T1 sequence (P05067 672-711 limits assumed): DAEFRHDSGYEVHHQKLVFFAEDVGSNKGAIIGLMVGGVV

Question: What does the source list for `O=c1c(-c2ccc(O)c(O)c2)coc2cc(O)c(O)c(O)c12` [compound 6, 3-(3,4-dihydroxyphenyl)-5,6,7-trihydroxy-4H-chromen-4-one]?
Answer: decrease of overall NMR peak intensity [1]: ca. 10%; decrease of overall NMR peak intensity [2]: ca. 20%; plausible oxidation sites in singly oxidized Aβ ([3]; Cu(II)–Aβ42, Cu(II) 100 μM): His13, His14, and Met35; oxidation site in singly oxidized Aβ ([3]; metal-free Aβ42 100 μM, aerobic): Met35
